Measurements from US8609723B2 (Beijing Dingguochangsheng Biotech., Co., Ltd., priority 2008, dated 2013).

Legend:
[1] = test system: male ICR mice; experiment: Tail suspension test in mice; assay type: in vivo; conditions: curcumin 10 mg/kg, Days 3 and 7 after administration, vs control group
Experimental: The tail suspension test was carried out for each of these groups on Days 3, 7 and 14 after administration, except that such experiment was not performed for the curcumin group on Day 14. Tails of the mice were taped on a special iron stand at 1 cm from the tips, whilst keeping the mice staying at a height of 50 cm from ground. Performance of the mice was observed within 6 min, and the accumulative immobile time within the last 4 min was recoded for each mouse.

[2] = test system: male ICR mice; experiment: Forced swimming test of mice; assay type: in vivo; conditions: curcumin 10 mg/kg, Days 3 and 7 after administration
Experimental: The mice were forced to swim on Days 3, 7 and 14 after administration, except that such experiment was not performed for the curcumin group on Day 14.
Twenty four hours before the formal test, the mice were placed into a round glass container (height: 25 cm, diameter: 10 cm) filled with water (depth: 10 cm) with a temperature of 24±1° C., and forced to conduct swim training for 15 min. Twenty four hours later, the mice were placed into the round glass container filled with water (depth: 10 cm) again and forced to swim for 6 min. The accumulative immobile time within the last 4 min was observed and recorded for each mouse. The immobile time is intended to mean the period within which the mouse stops to struggle, floats in the water and keeps immobile, or only makes a few slight movements that are necessary to keep its head floating on the surface of water.

[3] = test system: 5-HT, NA, DA and metabolites thereof in hippocampus; experiment: Detection of monoamine and metabolites thereof in brains of mice; assay type: in vivo; conditions: 10 mg/kg
Experimental: Hippocampus was collected immediately on ice, weighed, put into an Eppendorf tube and kept in refrigeratory at −80° C. To each 100 mg brain tissue, 200 μl ice-cooled Solution A (0.4 mol/L HCLO4) was added. The mixture was homogenized ultrasonically in a ice bath, kept in dark at 4° C. for 60 min, and centrifuged for 20 min (12,000 rpm, 4° C.). […] The mixture was vortexed thoroughly for 10 min, kept at 4° C. in dark for 60 min, and centrifuged again for 20 min (12,000 rpm, 4° C.). The supernatant was collected and measured for the content of monoamine. The contents of 5-HT, NA, DA, 5-HIAA and DOPAC in brain tissue were determined by High Effective Liquid Phase Electrochemistry. […] The contents of monoamine and metabolites thereof in brain tissue were shown as ng/g wet tissue weight.

[4] = background statement; cited from earlier work
[5] = test system: S-180 sarcoma cells; experiment: Antitumor experiment of tumor S-180-bearing mice; assay type: in vivo; conditions: 5-FU administered daily, 7 days
From the text: During the experiment, the mice were inoculated with S-180 sarcoma cells (×10^7) in armpits. […] Seven days later, the mice were sacrificed by decollation. The tumors were removed, and the mice and the tumors were weighed separately.

[6] = test system: HCT116 cells; experiment: Antitumor experiment of tumor HCT116-bearing mice; assay type: in vivo; conditions: 5-FU administered daily, 7 days
From the text: During the experiment, the mice were inoculated with HCT116 cells (×10^7) in armpits. […] Seven days later, the mice were sacrificed by decollation. The tumors were removed, and the mice and the tumors were weighed separately.

[7] = test system: S-180 cells; experiment: Effect on apoptosis of tumor cells, cell cycle by flow cytometry; assay type: in vivo, mice; conditions: sarcoma cell cycle, S-180 tumor fluid, 7 days
From the text: During the experiment, the mice were inoculated with S-180 cells (×10^7) in armpits. Seven days later, the mice were sacrificed by decollation and the tumors were removed. Tumor fluid was collected from tumors, and used for determining cell cycle by flow cytometry after ethanol fixation.

[8] = test system: chronically stressed rats; experiment: Measurement of body temperature of chronically stressed rats; assay type: in vivo; conditions: imipramine 10 mg/kg intraperitoneally daily for 21 days, chronic stress
From the text: (§1) The rats in the normal control group were raised normally under a condition without any stimulation except for weighing body weight, measuring body temperature, and subjected to sugar test. All of other groups were subjected to stimulations of same type and same strength. During the experiment, different types of stimulations were applied in an unpredictable manner, and the same type of stimulation was enhanced each time.
(§2) The stress protocol was shown as follows: horizontally shaking at a high speed for 45 min; nipping tails (1 cm from the tail root): 1 min; depriving of water for 24 h; forbidding moving for 1.5 h; fasting for 24 h; stimulating with ice water (water temperature: 10° C.) for 5 min; electric shocking (1 mA, time course: is, 1 shock/min) the bottoms of feet for 30 min; changing cages and raising separately for 24 h; forbidding moving for 2 h; nipping tails (1 cm from the root of tail) for 1 min; depriving of water for 24 h; horizontally shaking at a high speed for 1.5 h; fasting for 24 h; nipping tails (1 cm from the tail root): 1 min; electric shocking (1 mA, time course: 1 s, 1 shock/min) the bottoms of feet for 40 min; stimulating with ice water for 5 min; changing cages and raising separately for 24 h; horizontally shaking at a high speed for 60 min; electric shocking (1 mA, time course: 1 s, 1 shock/min) the bottoms of feet for 50 min; depriving of water for 24 h; forbidding moving for 2.5 h; and 24 h social isolation.
The front part of a digital thermometer was coated with liquid paraffin, and then inserted into the anus of a rat with a depth of approximately 1 cm. The temperature was read twice accordingly and averaged.

[9] = test system: chronically stressed rats; experiment: Sugar water test of rats (chronic stress model); assay type: in vivo; conditions: imipramine 10 mg/kg, table title says (%), the values are: sugar water preference
From the text: as §1
as §2, with “The chronic stress course was 20 days in total, once per day, from 9:00 AM to 2:00 PM. The” for “The”
Before this experiment, animals were trained to adapt to drink sugar water in a to quite room. Two bottles were placed simultaneously into each cage. For the first 24 h, these two bottles were both filled with 1% sugar water; and for the next 24 h, one of them was filled with 1% sugar water and the other was filled with pure water. Then after 23-hour water deprivation, the animals were tested for basic sugar water/pure water consumption. One bottle of 1% sugar water and one bottle of pure water were provided to each rat simultaneously. One hour later, the two bottles were weighed, and the total liquid consumption, sugar water consumption, pure water consumption, and the sugar water preference=sugar water consumption/total liquid consumption×100% were calculated, respectively. The experiment was performed after continuous administration of curcumin for 14 days.

[10] = test system: chronically stressed rats; experiment: Forced swimming test of rats (chronic stress model); assay type: in vivo; conditions: imipramine 10 mg/kg intraperitoneally daily for 21 days
From the text: as §1
as §2, with “The chronic stress course was 20 days in total, once per day, from 9:00 AM to 2:00 PM. The” for “The”
Please see FIG. 7. 24 hours before the formal test, rats were placed into a round glass container (height: 40 cm, diameter: 18 cm) filled with water (depth: 23 cm) with a temperature of 24±1° C., and forced to conduct swim training for 15 min. […] The accumulative immobile time within the last 4 min was observed and recorded for each rat. The immobile time is intended to mean the period within which the rat stops to struggle, floats in the water and keeps immobile, or only makes a few slight movements that are necessary to keep its head floating on the surface of water.

[11] = test system: serum corticosterone; experiment: Determination of the content of serum corticosterone (chronic stress model); assay type: in vivo; conditions: stressed rats, imipramine 10 mg/kg daily, day after 21-day stress
From the text: as §1
as §2, with “The chronic stress course was 20 days in total, once per day, from 9:00 AM to 2:00 PM. The” for “The”
In this experiment, the content of serum corticosterone was measured by a competitive method, with its mechanism shown as follow: antigens in samples and enzyme-labeled antigens compete to bind antibodies in a solid phase. The more antigens exist in samples, the less enzyme-labeled antigens bind to the solid phase, thereby resulting in a fainter coloration.
On the next day after the end of the 21-day stress period, rats were sacrificed by decollation, and 5˜10 ml whole blood was collected. A portion of the collected whole blood was kept at room temperature for 20 min, followed by centrifugation at 1000 rpm for 10 min. Serum was then separated and stored at −80° C. The serum corticosterone detection kit was used for such detection.

[12] = first line of group (Day 3 presumed)
[13] = second line of group (Day 7 presumed)

SMILES: COc1cc(/C=C/C(=O)CC(=O)/C=C/c2ccc(O)c(OC)c2)ccc1O [Curcumin, curcumin, reference compound]
- reduction of tail suspension accumulative immobile time [1]: no significant difference
- reduction of accumulative immobile time in the forced swimming test [2]: did not significantly reduce
- Hippocampus 5-HIAA [3, 12]: 175.7 ± 13.8 ng/g
- Hippocampus 5-HIAA/5-HT [3, 12]: 0.32 ± 0.03
- Hippocampus 5-HT [3, 12]: 541.2 ± 31.8 ng/g
- Hippocampus DOPAC [3, 12]: 12.4 ± 1.2 ng/g
- Hippocampus Dopamine [3, 12]: 19.1 ± 3.6 ng/g
- Hippocampus Noradrenaline [3, 12]: 245.6 ± 12.2 ng/g
- Hippocampus 5-HIAA [3, 13]: 179.2 ± 14.9 ng/g
- Hippocampus 5-HIAA/5-HT [3, 13]: 0.33 ± 0.03
- Hippocampus 5-HT [3, 13]: 534.6 ± 28.9 ng/g
- Hippocampus DOPAC [3, 13]: 11.9 ± 1.8 ng/g
- Hippocampus Dopamine [3, 13]: 18.8 ± 5.4 ng/g
- Hippocampus Noradrenaline [3, 13]: 246.6 ± 11.2 ng/g
- half life [4]: approximately 1 hour

SMILES: O=c1[nH]cc(F)c(=O)[nH]1 [Example 5-FU, 5-FU, reference compound]
- inhibitory rate of tumors [5]: 55.8%
- inhibitory rate of tumors [6]: 52.8%
- APO % (apoptosis level of tumor cells) [7]: 29.1%
- G1 % [7]: 35.1%
- G2 % [7]: 11.7%
- S % [7]: 53.2%

SMILES: CN(C)CCCN1c2ccccc2CCc2ccccc21 [Imipramine, imipramine, reference compound]
- Body temperature after stress [8]: 36.34 ± 0.083 °C
- Sugar water volume after stress [9]: 67.5 ± 5%
- Sugar water volume before stress [9]: 74.8 ± 7.8%
- reduced the accumulative immobile time of the forced swimming test [10]: 40.5%
- serum corticosterone [11]: 137.0 ± 15.3 nmol/L
